A word on the melting point: it is the temperature, or range, at which the solid turns liquid.

The compound `C[C@H]1C(=O)Nc2ccc(Cl)cc2N1C(=O)Oc1ccc(Cl)cc1` came in with a melting point of 185 to 188 °C.
For `CCCCN(CC1Cc2cc(Cl)cc(Cl)c2O1)C(=O)n1cncn1` (stereo not given) the value was 122 to 124 °C.
As to `Cc1cc(C)c(Nc2nc(C)ncc2S(=O)(=O)c2ccc(-c3cncnc3)cc2)c(C)c1`, the melting point was in the range of 210 to 212 °C.
The compound `O=C(C1CCCCO1)N1CCNCC1` (stereo not given) had a melting point of 53 to 58 °C.
For `CC(=O)N1C(C(=O)O)CSC1C(C)c1ccc(CC(C)C)cc1` (stereo not given) the value was 150 to 153 °C.
For `CC1(C)CC(O)CC(C)(C)N1OC1C=CCCC1` (stereo not given) the value was 65 to 66.5 °C.
For `CN(C)C1CCc2oc3ccc([N+](=O)[O-])cc3c2C1` (stereo not given) the value was 88 to 89 °C; for `Cc1ccc2ccc(C(=O)O)c(O)c2n1`, 217 to 219 °C.
`C/C(=C(\C#N)C(N)=S)N1CCCOCC1` showed a melting point of 151 to 156 °C.
For `NC(=O)C(Nc1ccc2ccccc2c1)c1c(Cl)cccc1Cl` (stereo not given) the value was 158 °C; for `CC(C)(C(N)=O)c1cn2nc(Cl)ccc2n1`, 194 to 195 °C.
For `COC(=O)c1nccn1C(c1ccccc1)(c1ccccc1)c1ccccc1` the value was 186 to 188 °C.
For `CC(C)Oc1ccc2c(c1O)OC(C)(C)CC2=O` the value was 114 to 116 °C; for `COc1ccc(O)c2c1C(C)(C)CCC2(C)C`, 127 °C.
Consider `CC(C)(C)c1ccc(-c2nc3ccc(C(=O)O)cc3[nH]2)cc1`, for which the melting point was 212 °C.
For `O=C1CNC(c2cc(-c3ccsc3)cc(-c3ccsc3)c2)=NN1CC(F)(F)F` the value was 180 to 182 °C; for `CC(=O)c1cc2cc(Br)ccc2s1`, 120 to 121 °C; for `C[Si](C)(C)C#CCCCn1ncc(C#N)c1N`, 125 to 127 °C.
For `CC(C)(Sc1ccc(-n2cncn2)nn1)C(O)(Cn1cncn1)c1ccc(F)cc1F` (single isomer, unassigned; (+)) the value was 226 to 227 °C; for `CC(=NNC(=O)c1ccccc1)c1sc(C)nc1C`, 138 °C.
For `NCC(O)c1ccc([N+](=O)[O-])cc1` (stereo not given) the value was 138 to 139 °C; for `CCC(=O)NCC[C@@H]1CCc2cc(Br)c(O)c(CCO)c21`, 85 to 87 °C; for `CC(C)n1cc(-c2c(-c3ccccc3F)nn3ccncc23)ccc1=O`, 150 to 151 °C.
On to `O=C(c1ccccc1)c1ccc(OC(=O)C2CC2)cc1`, for which the melting point was 81 to 81.5 °C.
For `CC(=O)Oc1ccc(C2COc3cc(OC(C)=O)c(OC(C)=O)cc3C2)cc1` (stereo not given) the value was 145 to 147 °C; for `Cn1cc(C(=O)O)c(=O)c2cc3cc(F)c(N4CCNC(c5ccc(OCCO)cc5)C4)c(F)c3nc21` (racemic), 226 to 228 °C; for `Cc1ccc(/C=C/c2ccccc2[N+](=O)[O-])c([N+](=O)[O-])c1`, 170 to 171 °C.
For `CCCCSc1nc(N(C)C(C)=O)c(C#N)s1` the value was 40 °C.
With `C#CCC(Oc1cccc(C)c1C)C1=NCCN1` (stereo not given), the melting point is 70 to 73 °C.
For `O=C1CCCc2c1[nH]c1ccc(Cl)cc21` the value was 226 °C.
For `O=C1CN2CCC(CC2)N1` the value was 121 to 122 °C.
For `COc1cccc(S(=O)c2cccc(N)c2C#N)c1` (stereo not given) the value was 110 to 114 °C; for `O=C(Cc1ccc(F)cc1)Nc1ccc(-n2nc(C3CC3)cc2C2CC2)cc1`, 141 to 148 °C.
`O=C(O)c1ccccc1N1CCN(CC(O)COc2ccc(O)cc2)CC1` (stereo not given): the melting point was 235 to 237 °C.
For `OC1OC2CC3CC(C2)OC1O3` (stereo not given) the value was 185 to 194 °C.
For `CCOC(=O)c1cn(C2CC2)c2c(F)c(N3CC[C@H](N)C3)c(F)cc2c1=O` the value was 227 to 228 °C.
For `CCCC(C)C(=O)Oc1c(I)cc(I)cc1I` (stereo not given) the value was 66 to 68 °C.
On to `Cc1ccc(N(c2ccc(C)cc2)c2ccc(C=Cc3ccccc3O)cc2)cc1`, for which the melting point fell in the range of 136 to 138 °C.
For `C=C(OCC)c1cc(C(=O)OC)c(NC(C)=O)cc1C(F)(F)F` the value was 65 to 73 °C.
For `CC(C)(C)OC(=O)N1CC=C(c2nc3c(Cl)cccc3s2)CC1` the value was 98 to 101 °C; for `CC(=O)C(Cl)=NNc1ccc([N+](=O)[O-])cc1`, 180 to 183 °C.
For `c1ccc(CN2CCC(Oc3cnccn3)(c3ccccc3)CC2)cc1` the value was 107 to 108 °C; for `CO/C(=C\C=C\c1cc2cc(Cl)c(Cl)cc2[nH]1)C(=O)O`, 249 to 250 °C; for `Cc1nnc(-c2ccc3occ(-c4ccc(S(C)(=O)=O)c(OC(F)(F)F)c4)c3c2)o1`, 218 to 219 °C.
Take `CCCC(=O)c1cnc2c(OC)nccc2c1Nc1ccccc1C`: the melting point came to 144 °C.
For `CS(=O)c1ccc(C(CC2CCCC2)C(=O)Nc2nccs2)cc1` (stereo not given) the value was 170 to 173 °C.
For the compound `CNC(=O)[C@@H](C[C@H](O)[C@H](CC1CCCCC1)NC(=O)[C@H](Cc1cscn1)NC(=O)OC(C)(C)C)C(C)C`, the melting point fell in the range of 183 to 185 °C.
For `CCN1c2ncc(COc3cccc4[nH]ccc34)cc2C(=O)N(C)c2ccc(Cl)nc21` the value was 183 to 185 °C; for `Nc1ccc(Nc2ncnc3cc(-c4ccccc4)sc23)cc1`, 210 to 211 °C; for `Cc1nc(N)nc(N)c1N=Nc1cccc(Cl)c1`, 249 °C.
For `O=C(SC1CCCC1C(=O)N1CCC[C@H]1C(=O)O)c1ccccc1` (stereo not given in full) the value was 68 to 70 °C.
For `O=C(CC(C(=O)O)C1CCCCC1)Nc1cccc(/C=C/c2nc(C3CCC3)cs2)c1` (stereo not given) the value was 205 to 207 °C.
Compound `c1ccc(N2CCN(Cc3nc4ccccc4[nH]3)CC2)nc1` showed a melting point of 220 to 221 °C.
Turning to `C=C(C)C(=O)OCCCOc1ccc(-c2cc(OC(=O)C(=C)C)cc(-c3ccc(OCCCOC(=O)C(=C)C)cc3)c2)cc1`, the melting point was determined as 49 °C.
For `COCC12CCC(=O)CC1CCC1C3CCC(=O)C3(C)CCC12` (stereo not given) the value was 94 to 96 °C; for `COCCOc1ccc(/C=C/C(=O)NS(=O)(=O)c2ccc(C)cc2)c(Oc2ncc(C(F)(F)F)cc2Cl)c1`, 102 to 106 °C.
With `Cc1c(N2CC(F)C(C3(N)CCC3)C2)c(F)c(N)c2c(=O)c(C(=O)O)cn(C3CC3F)c12` (stereo not given), the melting point fell in the range of 177 to 184 °C.
For `O=C(c1ccccc1)c1ccc(N2CCC(N3C(=O)OCc4ccccc43)CC2)c([N+](=O)[O-])c1` the value was 272 to 273 °C.
As for `CC1(C)N=C(c2ccc(N)cc2)CC1c1ccncc1` (stereo not given), the melting point lay in the range of 175 to 178 °C.
For `Cc1ccc2c(c1)c1cc(C(=O)O)sc1n2C` the value was 216 to 219 °C; for `CCCN1C[C@H]2CCc3cccc(O)c3[C@H]2C1` (relative stereo), 180 to 184 °C; for `COc1ccccc1/C=C/C(=O)/C=C/c1ccccc1OC`, 124 to 126 °C.
For `Fc1cc(CC2(Cc3ccncc3)c3ccccc3Oc3ncccc32)ccn1` (stereo not given) the value was 206 to 208 °C; for `CCCCCCCCCCCCCCCCOCC(CO)OCCCCCCCCCCCCCC` (stereo not given), 42 to 43 °C.
For `O=C(Nc1cccc(-n2nc(C(F)(F)F)cc2C(F)(F)F)c1)c1c(F)cccc1F` the value was 142 to 143 °C.
Compound `CCc1nn(Cc2ccccn2)c(C(N)=O)c1NC(=O)c1cc(S(C)(=O)=O)ccc1OCC(C)C` gave a melting point of 225 to 227 °C.
Compound `OCC1OC(n2c(Cl)nc3cc(Br)ccc32)C(O)C1O` (stereo not given) gave a melting point of 154 to 155 °C.
For `Cc1ccc(C2=C(c3ccc(S(C)(=O)=O)cc3)OC(C)(C)C2=O)cc1` the value was 167 to 168 °C; for `O=C(Cl)C(=O)c1cn(Cc2ccc(Cl)cc2)c2ccccc12`, 151 to 153 °C; for `O=C1C[C@@H](O)C[C@H](CCc2c(Cl)cc(Cl)cc2OCc2ccc(F)cc2)O1`, 133 to 135 °C.
For `Cc1cc(C)c(C(=O)P(=O)(c2ccccc2)c2ccccc2)c(C)c1Cl` the value was 125 to 126 °C; for `c1csc(-c2cn([C@H]3CN4CCC3CC4)nn2)c1`, 137 °C.
Take `O=[N+]([O-])C=C1NCCN1c1ccc(Cl)nc1`: the melting point worked out at 201 °C.
Take `O=C1SCCN1Cc1ccccc1[N+](=O)[O-]`: the melting point was in the range of 92 to 93 °C.
`COc1ccc(C2C3=C(COC3=O)Nc3ccc4cc(C)[nH]c4c32)c(F)c1` (stereo not given) showed a melting point of 205 to 207 °C.
For `CCCCCCCCCCCCc1cc(C(=O)O)c(C)o1` the value was 70 to 73 °C; for `CS(=O)(=O)CCNc1nccc(Oc2ccc(NC(=O)c3cc(F)cc(N4CCCCC4)c3)c3ccccc23)n1`, 102 to 104 °C.
For `CCOC(=O)c1oc2ccc(Cl)cc2c1C(=O)OCC` the value was 33 to 35 °C.
In turn, `O=C1c2ccccc2C(=O)N1CC(O)COc1cccc2ccccc12` (stereo not given) came in with a melting point of 152 to 154 °C.
For `C[C@@H](n1cnc2cccc(F)c2c1=O)[C@](O)(Cn1cncn1)c1ccc(F)cc1F` the value was 94 to 122 °C.
For `O=C(O)c1ccc(OCCCON=Cc2ccc(-c3ccccc3)cc2)cc1NC(=O)c1ccccc1C(F)(F)F` the value was 170 to 172 °C; for `Clc1ccc(C2(c3ccccc3)OC2n2ccnc2)c(Cl)c1` (stereo not given), 135 to 137 °C.
For `NS(=O)(=O)c1cc(C(O)CN(Cc2ccccc2)Cc2ccccc2)ccc1N1CCCCC1` (stereo not given) the value was 133 to 142 °C.
The compound `NC(=O)c1ccc(CCN2CCC(=C3c4ccsc4CCn4ccnc43)CC2)cc1` came in with a melting point of 196 °C.
Compound `CC(C)OC(=O)Nc1cccc(-c2ccnc3c(C(=O)c4ccsc4)cnn23)c1` registered a melting point of 122 to 124 °C.
Compound `C=CCc1cccc(-c2nc3n(C4CCCC4)[nH]c(CC)c-3c(=O)n2)c1O` displayed a melting point of over 280 °C.
For `CCOc1nn(Cc2ccnc(OCc3nc(-c4ccccc4)oc3C)c2)cc1CCC(=O)O` the value was 114 to 115 °C.
For `O=C(O)COc1ccc(SCc2cc(-c3ccc(Cl)cc3)no2)c2c1CCC2` the value was 92 to 94 °C; for `O=C(O)Cc1csc(Nc2ccc(Cl)c(C(F)(F)F)c2)n1`, 108 to 112 °C.
For `CCc1nn(-c2ccc(F)cc2)c2cc(Br)ccc12` the value was 72 to 73 °C.

For the origin of these results see a melting point compilation (Tetko et al.; mined from patent text by program, amines drawn as free bases though some values may be those of a salt).
